According to the supplement of paper PMC13380429:

How the values were obtained:
Conditions in all cases: 72 h
[1] = tested on: HepG2; test: relative viability EC50 (midpoint between 100% and the lowest measured viability); higher = less toxic
[2] = tested on: Calu-3; test: as above
[3] = tested on: U2OS; test: as above
[4] = tested on: Caco-2; test: as above
[5] = tested on: Vero E6; test: as above
[6] = tested on: HepG2; test: drug sensitivity score (DSS) for viability; higher = more toxic; extreme values may be limits of the assay
[7] = tested on: Calu-3; test: as above
[8] = tested on: U2OS; test: as above
[9] = tested on: Caco-2; test: as above
[10] = tested on: Vero E6; test: as above
[11] = tested on: HepG2; test: cell viability relative to DMSO; higher = less toxic
[12] = tested on: Calu-3; test: as above
[13] = tested on: U2OS; test: as above
[14] = tested on: Caco-2; test: as above
[15] = tested on: Vero E6; test: as above

Row | SMILES | relative viability EC50 [1] | relative viability EC50 [2] | relative viability EC50 [3] | relative viability EC50 [4] | relative viability EC50 [5] | drug sensitivity score [6] | drug sensitivity score [7] | drug sensitivity score [8] | drug sensitivity score [9] | drug sensitivity score [10] | cell viability ([11]; 1 nM) | cell viability ([11]; 10 nM) | cell viability ([11]; 100 nM) | cell viability ([11]; 1000 nM) | cell viability ([11]; 10000 nM) | cell viability ([12]; 1 nM) | cell viability ([12]; 10 nM) | cell viability ([12]; 100 nM) | cell viability ([12]; 1000 nM) | cell viability ([12]; 10000 nM) | cell viability ([13]; 1 nM) | cell viability ([13]; 10 nM) | cell viability ([13]; 100 nM) | cell viability ([13]; 1000 nM) | cell viability ([13]; 10000 nM) | cell viability ([14]; 1 nM) | cell viability ([14]; 10 nM) | cell viability ([14]; 100 nM) | cell viability ([14]; 1000 nM) | cell viability ([14]; 10000 nM) | cell viability ([15]; 1 nM) | cell viability ([15]; 10 nM) | cell viability ([15]; 100 nM) | cell viability ([15]; 1000 nM) | cell viability ([15]; 10000 nM)
1 | C=CC(=O)Nc1cc(Nc2nccc(-c3c[nH]c4ccccc34)n2)c(OC)cc1N(C)CCN(C)C [AZ5104] | 1.19 µM | 0.0093 µM | 1.13 µM | 0.563 µM | 0.397 µM | 9.3 | 27.9 | 9.8 | 10.3 | 15.6 | 98.2% | 94.2% | 84.2% | 64% | 9.2% | 82.8% | 56.2% | 32.5% | 33.3% | 17.4% | 104% | 95.2% | 95.4% | 59.6% | 8.6% | 89.1% | 87.6% | 81.7% | 62.1% | 24.3% | 88.8% | 93.8% | 61.6% | 49.7% | 0.2%
2 | COC1CCN(C(=O)c2cc(Cc3n[nH]c(=O)c4ccccc34)ccc2F)CC1 [AZD2461] | > 10 µM | > 10 µM | > 10 µM | > 10 µM | > 10 µM | 3.4 | 0 | 0 | 0 | 0 | 99.5% | 86% | 85.5% | 93.8% | 87.2% | 86.7% | 100% | 79.8% | 69.5% | 92.5% | 94.4% | 96% | 99.1% | 94.4% | 100% | 90.3% | 97.5% | 95.5% | 100% | 93.6% | 99.3% | 97% | 99.7% | 97.9% | 99.9%
3 | COc1ccc(-c2ccc3ncc4c(c3c2)n(-c2ccc(N3CCNCC3)c(C(F)(F)F)c2)c(=O)n4C)cn1 [BGT226] | 0.107 µM | 0.0321 µM | 0.0293 µM | 0.0397 µM | 0.14 µM | 22.8 | 28.4 | 29.8 | 26.8 | 21 | 110% | 91.5% | 50.8% | 11.5% | -0.3% | 110% | 58.3% | 29.6% | 23.2% | 0% | 101% | 74.2% | 22.8% | 0.1% | -0.2% | 88.6% | 69% | 35.8% | 19.3% | 0.6% | 98% | 93.9% | 52.2% | 22.2% | -0.2%
4 | CCNC(C)CN1CCc2c(c(=O)oc3ccccc23)C1 (stereo not given) [CI-923] | > 10 µM | > 10 µM | > 10 µM | > 10 µM | > 10 µM | 0 | 0 | 0 | 0 | 0 | 99.6% | 93.1% | 105% | 97.5% | 109% | 99.5% | 109% | 100% | 111% | 99.1% | 99% | 99.3% | 95.9% | 101% | 95.8% | 103% | 102% | 103% | 97.9% | 93.6% | 99.7% | 103% | 104% | 95.9% | 94.5%
5 | COc1ccc(-c2nc(N3CCOCC3)c3sc(CN(C)c4ncc(C(=O)NO)cn4)cc3n2)cn1 [CUDC-907] | 0.0069 µM | 0.0152 µM | 0.006 µM | 0.0177 µM | 0.0166 µM | 37.9 | 32 | 38.7 | 33 | 34 | 90.2% | 39.6% | 0.6% | -0.1% | -0.1% | 85.2% | 65.4% | 14.1% | 5.1% | 3.7% | 90.9% | 34.4% | 0.6% | 0.3% | 0.4% | 81.5% | 73.2% | 3.5% | 0.6% | 1% | 103% | 78.2% | 0% | -0.3% | -0.4%
6 | CC(C)N(CCc1c[nH]c2ccccc12)C(C)C [DIPT] | > 10 µM | > 10 µM | > 10 µM | > 10 µM | > 10 µM | 0 | 0 | 0 | 0 | 0 | 93.2% | 86.3% | 99.5% | 86% | 95.7% | 85.7% | 95.4% | 97.5% | 96% | 103% | 101% | 99.7% | 98.2% | 102% | 96.6% | 95% | 103% | 107% | 101% | 102% | 103% | 98.9% | 101% | 95.1% | 97.4%
7 | CS(=O)(=O)c1ccc(-c2cnc(NCc3ccco3)n3cnnc23)cc1 [EED226] | > 10 µM | > 10 µM | > 10 µM | > 10 µM | > 10 µM | 0.1 | 0 | 0 | 0 | 0 | 99.8% | 92.8% | 94.6% | 102% | 87% | 102% | 102% | 94.4% | 111% | 111% | 98.3% | 97.1% | 98.5% | 97.4% | 98% | 95.7% | 82.8% | 104% | 88.1% | 103% | 107% | 100% | 103% | 105% | 98%
8 | CCC(CC)n1ccc2c(C(=O)NCc3c(C)cc(C)[nH]c3=O)cc(C#N)cc21 [EI1] | > 10 µM | > 10 µM | > 10 µM | > 10 µM | > 10 µM | 0 | 0 | 0 | 0 | 0 | 90.7% | 92.3% | 101% | 93.7% | 97.6% | 94.2% | 96.6% | 101% | 109% | 102% | 98.7% | 99.4% | 93.8% | 96.1% | 101% | 105% | 95.1% | 97.2% | 95.4% | 93.6% | 105% | 100% | 107% | 97.5% | 104%
9 | CCOc1cccc(NC(=O)c2ccc(N3CCCC3)c(C(F)(F)F)c2)c1 [EPPTB] | > 10 µM | > 10 µM | > 10 µM | > 10 µM | > 10 µM | 0 | 0.2 | 0 | 1.6 | 0 | 90.9% | 96.2% | 96.4% | 91.5% | 97.5% | 98.9% | 99.5% | 98.3% | 102% | 83.9% | 101% | 99.2% | 97.4% | 99.1% | 90.9% | 106% | 101% | 89% | 92.7% | 86.4% | 101% | 102% | 97.3% | 95.5% | 101%
10 | CCCCC(=O)O[C@H]1CC[C@H]2[C@@H]3CCc4cc(O)ccc4[C@H]3CC[C@]12C [ESTRADIOL VALERATE] | > 10 µM | > 10 µM | > 10 µM | > 10 µM | > 10 µM | 0 | 0.6 | 0 | 0.1 | 0 | 109% | 106% | 101% | 97.6% | 108% | 99.8% | 104% | 96.4% | 97.8% | 83.8% | 106% | 108% | 103% | 106% | 96.5% | 104% | 94.6% | 97% | 105% | 85.8% | 101% | 102% | 103% | 99.5% | 100%
11 | C[C@@H](NC(=O)[C@@H](N)Cc1ccc(O)cc1)C(=O)NCC(=O)N(C)[C@@H](Cc1ccccc1)C(=O)N[C@H](CO)CC[S+](C)[O-] (stereo not given in full) [FK-33-824] | > 10 µM | > 10 µM | > 10 µM | > 10 µM | > 10 µM | 0 | 0 | 0 | 0 | 0 | 98.9% | 93.7% | 109% | 101% | 100% | 98.7% | 94.1% | 99.4% | 92.1% | 92.6% | 98.8% | 106% | 98.6% | 101% | 100% | 98% | 95.7% | 90.7% | 96.1% | 102% | 99.5% | 97.5% | 93.3% | 97% | 107%
12 | CCNC(=O)Nc1ccc(-c2nc3c(c(N4CCOC[C@@H]4C)n2)CCN(C2COC2)C3)cc1 [GDC-0349] | 0.6 µM | 0.211 µM | 1.17 µM | 0.295 µM | 1.46 µM | 10.4 | 13.7 | 8.3 | 11.1 | 5.6 | 114% | 99.8% | 95.9% | 49% | 26.3% | 101% | 100% | 79% | 39.5% | 29.5% | 102% | 98.9% | 94.6% | 66.2% | 21.1% | 107% | 95.7% | 82.3% | 51.7% | 35% | 106% | 105% | 94.2% | 81.2% | 40.3%
13 | CC(C)(Sc1ccc(CCN(CCCCC2CCCCC2)C(=O)NC2CCCCC2)cc1)C(=O)O [GW-7647] | > 10 µM | > 10 µM | > 10 µM | > 10 µM | > 10 µM | 0 | 0 | 0 | 0 | 0 | 87% | 95.3% | 99.1% | 87% | 101% | 97.9% | 110% | 100% | 94.6% | 100% | 101% | 101% | 105% | 96.2% | 98.2% | 87.7% | 101% | 98.3% | 104% | 103% | 97.3% | 100% | 91.1% | 97.7% | 110%
14 | CCn1c2ccccc2c2cc(CNCc3ccccc3OC)ccc21 [HLCL-61] | > 10 µM | > 10 µM | > 10 µM | > 10 µM | > 10 µM | 1.1 | 0 | 0 | 0 | 0.1 | 106% | 95.4% | 93.5% | 95.6% | 79.2% | 111% | 99.5% | 95.7% | 106% | 87.9% | 100% | 96.6% | 99.2% | 102% | 94.9% | 103% | 92% | 94.6% | 107% | 101% | 91.3% | 93.2% | 88.2% | 88.8% | 93.5%
